{"source": "paper PMC5732038", "about": "(ACS chemical biology, 2017)", "origin": "cited, not measured here", "tested_on": "methicillin resistant Staphylococcus aureus (MRSA)", "conditions": "several Gram-positive bacteria including MRSA", "data": [{"substance": "Sublancin", "values": [{"measurement": "antimicrobial activity", "value": "antimicrobial activity"}]}]}
